ChEMBL document CHEMBL3352620, “Development of potent antagonists for formyl peptide receptor 1 based on Boc-Phe-D-Leu-Phe-D-Leu-Phe-OH” (Bioorg Med Chem, 2014)
Active and inactive are the calls of the source. No cut-off for these calls is given here. Square brackets hold non-standard residues; d marks the D form. Peptide text beside a SMILES is read from it. * marks the point of attachment. Boc = CC(C)(C)OC(=O)*

Assays:
fMet-Leu-Phe receptor [1] = target: T1, fMet-Leu-Phe receptor (Homo sapiens, UniProt P21462); assay: Antagonist activity at formyl peptide receptor in human HL60 cells assessed as inhibition of intracellular calcium mobilization incubated for 5 mins prior to fMLP challenge by Fura-2 method; format: functional, cell-based, HL-60
T1 sequence (P21462 whole entry): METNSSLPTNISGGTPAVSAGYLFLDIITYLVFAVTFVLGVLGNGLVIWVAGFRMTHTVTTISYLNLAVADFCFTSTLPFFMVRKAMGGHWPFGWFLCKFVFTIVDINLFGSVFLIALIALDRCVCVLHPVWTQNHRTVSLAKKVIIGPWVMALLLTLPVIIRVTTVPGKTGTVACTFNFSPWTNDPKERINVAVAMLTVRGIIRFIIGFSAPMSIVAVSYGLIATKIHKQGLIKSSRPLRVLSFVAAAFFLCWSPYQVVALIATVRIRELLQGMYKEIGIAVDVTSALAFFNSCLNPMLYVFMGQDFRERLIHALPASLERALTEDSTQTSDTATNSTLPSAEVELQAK

fMet-Leu-Phe receptor [2] = target: T1, fMet-Leu-Phe receptor; assay: Antagonist activity at formyl peptide receptor in human HL60 cells assessed as inhibition of fMLP-induced calcium mobilization incubated for 5 mins prior to fMLP challenge by Fura-2 method
[3] = target: T2, fMet-Leu-Phe receptor (Homo sapiens) (UniProt P21462); assay: Antagonist activity at formyl peptide receptor in human HL60 cells assessed as inhibition of MMK1-induced calcium mobilization at 1 to 10 uM incubated for 5 mins prior to MMk1 challenge by Fura-2 method; format: functional, cell-based; conditions: HL-60
T2 sequence (whole entry): T1 sequence (P21462 whole entry)

[4] = target: T2, fMet-Leu-Phe receptor (Homo sapiens); assay: Agonist activity at formyl peptide receptor in human HL60 cells at 10 uM by Fura-2 method; format: cell-based; conditions: HL-60
[5] = target: T2, fMet-Leu-Phe receptor (Homo sapiens); assay: Antagonist activity at formyl peptide receptor in human HL60 cells assessed as fMLP EC50 at 1 uM incubated for 5 mins prior to fMLP challenge by Fura-2 method; format: cell-based; conditions: HL-60

CC(C)C[C@@H](NC(=O)[C@H](Cc1ccccc1)NC(=O)[C@@H](CC(C)C)NC(=O)[C@H](Cc1c[nH]c2ccccc12)NC(=O)OC(C)(C)C)C(=O)N[C@@H](Cc1ccccc1)C(=O)O
Kd (fMet-Leu-Phe receptor [1]): 190 nM

CC(C)C[C@@H](NC(=O)[C@H](CC1=CCCCC1)NC(=O)[C@@H](CC(C)C)NC(=O)[C@H](Cc1ccc(C(=O)c2ccccc2)cc1)NC(=O)OC(C)(C)C)C(=O)N[C@@H](Cc1ccccc1)C(=O)O
Kd (fMet-Leu-Phe receptor [1]): 2.1 nM
IC50 (fMet-Leu-Phe receptor [2]): 140 nM
inhibition [3]: inactive

CC(C)C[C@@H](NC(=O)[C@H](Cc1ccccc1)NC(=O)[C@@H](CC(C)C)NC(=O)[C@H](Cc1ccccc1)NC(=O)OC(C)(C)C)C(=O)N[C@@H](Cc1ccc(OC(C)(C)C)cc1)C(=O)O
Kd (fMet-Leu-Phe receptor [1]): 68 nM

CC(C)C[C@@H](NC(=O)[C@H](Cc1ccccc1)NC(=O)OC(C)(C)C)C(=O)N[C@H](C(=O)N[C@H](CC(C)C)C(=O)N[C@@H](Cc1ccccc1)C(=O)O)C(C)C
Kd (fMet-Leu-Phe receptor [1]): > 1000 nM

CC(C)C[C@@H](NC(=O)[C@H](Cc1ccccc1)NC(=O)[C@@H](CC(C)C)NC(=O)[C@H](COC(C)(C)C)NC(=O)OC(C)(C)C)C(=O)N[C@@H](Cc1ccccc1)C(=O)O
Kd (fMet-Leu-Phe receptor [1]): 100 nM

CC(C)C[C@H](NC(=O)[C@@H](CC(C)C)NC(=O)[C@H](Cc1ccccc1)NC(=O)[C@@H](CC(C)C)NC(=O)[C@H](Cc1ccccc1)NC(=O)OC(C)(C)C)C(=O)O
Kd (fMet-Leu-Phe receptor [1]): 130 nM

CC(C)C[C@@H](NC(=O)[C@H](CC1=CCCCC1)NC(=O)[C@@H](CC(C)C)NC(=O)[C@H](Cc1ccc(C(=O)c2ccccc2)cc1)NC(=O)OC(C)(C)C)C(=O)N[C@@H](CC1CCCCC1)C(=O)O
Kd (fMet-Leu-Phe receptor [1]): 6.9 nM

CC(C)C[C@@H](NC(=O)[C@H](C)NC(=O)OC(C)(C)C)C(=O)N[C@@H](Cc1ccccc1)C(=O)N[C@H](CC(C)C)C(=O)N[C@@H](Cc1ccccc1)C(=O)O
Kd (fMet-Leu-Phe receptor [1]): 170 nM
Activity [4]: inactive

CC(C)C[C@@H](NC(=O)[C@H](Cc1ccccc1)NC(=O)OC(C)(C)C)C(=O)N[C@@H](Cc1ccccc1)C(=O)N[C@H](CC(C)C)C(=O)N[C@H](C(=O)O)C(C)C
Kd (fMet-Leu-Phe receptor [1]): 260 nM

CC(C)C[C@@H](NC(=O)[C@H](Cc1ccccc1)NC(=O)OC(C)(C)C)C(=O)N[C@H](C(=O)N[C@H](CC(C)C)C(=O)N[C@@H](Cc1ccccc1)C(=O)O)[C@@H](C)OC(C)(C)C
Kd (fMet-Leu-Phe receptor [1]): 830 nM

CSCC[C@H](NC(=O)[C@@H](CC(C)C)NC(=O)[C@H](Cc1ccccc1)NC(=O)OC(C)(C)C)C(=O)N[C@H](CC(C)C)C(=O)N[C@@H](Cc1ccccc1)C(=O)O
Kd (fMet-Leu-Phe receptor [1]): 130 nM

CC(C)C[C@@H](NC(=O)[C@H](Cc1ccccc1)NC(=O)[C@H](C)NC(=O)[C@H](Cc1ccccc1)NC(=O)OC(C)(C)C)C(=O)N[C@@H](Cc1ccccc1)C(=O)O
Kd (fMet-Leu-Phe receptor [1]): 260 nM
Activity [4]: inactive

CC(C)C[C@@H](NC(=O)[C@H](Cc1ccccc1)NC(=O)[C@@H](CC(C)C)NC(=O)[C@@H](NC(=O)OC(C)(C)C)[C@@H](C)OC(C)(C)C)C(=O)N[C@@H](Cc1ccccc1)C(=O)O
Kd (fMet-Leu-Phe receptor [1]): 140 nM

CC(C)C[C@@H](NC(=O)[C@H](Cc1ccccc1)NC(=O)[C@@H](CC(C)C)NC(=O)[C@H](Cc1ccccc1)NC(=O)OC(C)(C)C)C(=O)N[C@@H](C)C(=O)O
Kd (fMet-Leu-Phe receptor [1]): 350 nM
Activity [4]: inactive

CC(C)C[C@@H](NC(=O)[C@H](Cc1ccccc1)NC(=O)[C@@H](CC(C)C)NC(=O)[C@H](CCCCN)NC(=O)OC(C)(C)C)C(=O)N[C@@H](Cc1ccccc1)C(=O)O
Kd (fMet-Leu-Phe receptor [1]): 730 nM

CC(C)C[C@@H](NC(=O)[C@H](Cc1ccccc1)NC(=O)[C@@H](CC(C)C)NC(=O)[C@H](CCCCNC(=O)C1CCCCC1)NC(=O)OC(C)(C)C)C(=O)N[C@@H](Cc1ccccc1)C(=O)O
Kd (fMet-Leu-Phe receptor [1]): 150 nM

CC(C)C[C@@H](NC(=O)[C@H](CC1CCCCC1)NC(=O)[C@@H](CC(C)C)NC(=O)[C@H](Cc1ccccc1)NC(=O)OC(C)(C)C)C(=O)N[C@@H](Cc1ccccc1)C(=O)O
Kd (fMet-Leu-Phe receptor [1]): 25 nM

CC(C)C[C@@H](NC(=O)[C@H](CCCCNC(=O)OC(C)(C)C)NC(=O)[C@@H](CC(C)C)NC(=O)[C@H](Cc1ccccc1)NC(=O)OC(C)(C)C)C(=O)N[C@@H](Cc1ccccc1)C(=O)O
Kd (fMet-Leu-Phe receptor [1]): > 1000 nM

CC(C)C[C@@H](NC(=O)[C@H](Cc1ccccc1)NC(=O)[C@@H](CC(C)C)NC(=O)[C@H](Cc1ccccc1)NC(=O)OC(C)(C)C)C(=O)N[C@@H](COC(C)(C)C)C(=O)O
Kd (fMet-Leu-Phe receptor [1]): 180 nM

CC(C)C[C@@H](NC(=O)[C@H](Cc1ccccc1)NC(=O)[C@@H](CC(C)C)NC(=O)[C@H](CC1CCCCC1)NC(=O)OC(C)(C)C)C(=O)N[C@@H](Cc1ccccc1)C(=O)O
Kd (fMet-Leu-Phe receptor [1]): 66 nM

CC(C)C[C@H](NC(=O)[C@@H](CC(C)C)NC(=O)[C@H](Cc1ccccc1)NC(=O)OC(C)(C)C)C(=O)N[C@H](CC(C)C)C(=O)N[C@@H](Cc1ccccc1)C(=O)O
Kd (fMet-Leu-Phe receptor [1]): 200 nM

CC(C)C[C@@H](NC(=O)[C@H](Cc1ccccc1)NC(=O)[C@@H](CC(C)C)NC(=O)[C@H](Cc1cn(C(=O)OC(C)(C)C)c2ccccc12)NC(=O)OC(C)(C)C)C(=O)N[C@@H](Cc1ccccc1)C(=O)O
Kd (fMet-Leu-Phe receptor [1]): 69 nM

CC(C)C[C@@H](NC(=O)[C@H](CC(=O)OC(C)(C)C)NC(=O)[C@@H](CC(C)C)NC(=O)[C@H](Cc1ccccc1)NC(=O)OC(C)(C)C)C(=O)N[C@@H](Cc1ccccc1)C(=O)O
Kd (fMet-Leu-Phe receptor [1]): 510 nM

CC(C)C[C@@H](NC(=O)[C@H](Cc1ccccc1)NC(=O)[C@@H](CC(C)C)NC(=O)[C@H](Cc1ccc(Cl)cc1)NC(=O)OC(C)(C)C)C(=O)N[C@@H](Cc1ccccc1)C(=O)O
Kd (fMet-Leu-Phe receptor [1]): 75 nM

CC(C)C[C@@H](NC(=O)[C@H](Cc1ccccc1)NC(=O)[C@@H](CC(C)C)NC(=O)[C@H](Cc1cn(C=O)c2ccccc12)NC(=O)OC(C)(C)C)C(=O)N[C@@H](Cc1ccccc1)C(=O)O
Kd (fMet-Leu-Phe receptor [1]): 90 nM

CC(C)C[C@H](NC(=O)OC(C)(C)C)C(=O)N[C@H](CC(C)C)C(=O)N[C@@H](Cc1ccccc1)C(=O)N[C@H](CC(C)C)C(=O)N[C@@H](Cc1ccccc1)C(=O)O
Kd (fMet-Leu-Phe receptor [1]): 200 nM

CC(C)C[C@@H](NC(=O)[C@H](Cc1ccccc1)NC(=O)[C@@H](CC(C)C)NC(=O)[C@H](Cc1ccc(C(=O)c2ccccc2)cc1)NC(=O)OC(C)(C)C)C(=O)N[C@@H](Cc1ccccc1)C(=O)O
Kd (fMet-Leu-Phe receptor [1]): 16 nM
IC50 (fMet-Leu-Phe receptor [2]): 420 nM
inhibition [3]: inactive

CC(C)C[C@@H](NC(=O)[C@H](Cc1ccccc1)NC(=O)[C@@H](CC(C)C)NC(=O)[C@H](Cc1ccccc1)NC(=O)OC(C)(C)C)C(=O)N[C@@H](Cc1cn(C(=O)OC(C)(C)C)c2ccccc12)C(=O)O
Kd (fMet-Leu-Phe receptor [1]): 120 nM

CC(C)C[C@@H](NC(=O)[C@H](Cc1ccccc1)NC(=O)OC(C)(C)C)C(=O)N[C@@H](Cc1ccccc1)C(=O)N[C@H](CC(C)C)C(=O)N[C@H](C(=O)O)[C@@H](C)OC(C)(C)C
Kd (fMet-Leu-Phe receptor [1]): 130 nM

CC(C)C[C@@H](NC(=O)[C@H](Cc1ccccc1)NC(=O)[C@@H](CC(C)C)NC(=O)[C@H](Cc1ccccc1)NC(=O)OC(C)(C)C)C(=O)N[C@@H](Cc1ccc(C(=O)c2ccccc2)cc1)C(=O)O
Kd (fMet-Leu-Phe receptor [1]): 150 nM

CC(C)C[C@@H](NC(=O)[C@H](Cc1ccc(C(=O)c2ccccc2)cc1)NC(=O)[C@@H](CC(C)C)NC(=O)[C@H](Cc1ccccc1)NC(=O)OC(C)(C)C)C(=O)N[C@@H](Cc1ccccc1)C(=O)O
Kd (fMet-Leu-Phe receptor [1]): 150 nM

CC(C)C[C@@H](NC(=O)[C@H](Cc1ccccc1)NC(=O)OC(C)(C)C)C(=O)N[C@@H](Cc1ccccc1)C(=O)N[C@@H](C)C(=O)N[C@@H](Cc1ccccc1)C(=O)O
Kd (fMet-Leu-Phe receptor [1]): 420 nM
Activity [4]: inactive

CC(C)C[C@@H](NC(=O)[C@H](C)NC(=O)[C@@H](CC(C)C)NC(=O)[C@H](Cc1ccccc1)NC(=O)OC(C)(C)C)C(=O)N[C@@H](Cc1ccccc1)C(=O)O
Kd (fMet-Leu-Phe receptor [1]): 280 nM
Activity [4]: inactive

CC(C)C[C@@H](NC(=O)[C@H](Cc1ccccc1)NC(=O)[C@@H](CC(C)C)NC(=O)[C@H](Cc1ccc(OC(C)(C)C)cc1)NC(=O)OC(C)(C)C)C(=O)N[C@@H](Cc1ccccc1)C(=O)O
Kd (fMet-Leu-Phe receptor [1]): 62 nM

CC(C)C[C@@H](NC(=O)[C@H](Cc1ccccc1)NC(=O)[C@@H](CC(C)C)NC(=O)[C@H](CCCCNC(=O)c1ccccc1)NC(=O)OC(C)(C)C)C(=O)N[C@@H](Cc1ccccc1)C(=O)O
Kd (fMet-Leu-Phe receptor [1]): 140 nM

CC(C)C[C@@H](NC(=O)[C@H](Cc1ccccc1)NC(=O)[C@@H](CC(C)C)NC(=O)[C@H](Cc1ccccc1)NC(=O)OC(C)(C)C)C(=O)N[C@@H](Cc1ccccc1)C(=O)O (Boc-F[dL]F[dL]F-OH)
inhibition [5]: inactive
Activity [4]: inactive

CC(C)C[C@@H](NC(=O)[C@H](Cc1ccccc1)NC(=O)[C@@H](CC(C)C)NC(=O)[C@H](Cc1ccccc1)NC(=O)OC(C)(C)C)C(=O)N[C@@H](Cc1c[nH]c2ccccc12)C(=O)O
Kd (fMet-Leu-Phe receptor [1]): 150 nM

CC(C)C[C@@H](NC(=O)[C@H](Cc1ccccc1)NC(=O)[C@@H](CC(C)C)NC(=O)[C@H](Cc1ccccc1)NC(=O)OC(C)(C)C)C(=O)N[C@@H](CC1CCCCC1)C(=O)O
Kd (fMet-Leu-Phe receptor [1]): 77 nM
